Reference: ChEMBL document CHEMBL1133799, “A disubstituted NAD+ analogue is a nanomolar inhibitor of trypanosomal glyceraldehyde-3-phosphate dehydrogenase” (Bioorg Med Chem Lett, 2001)

What was measured:
NIH3T3 = assay: Effective dose required against Trypanosoma cruzi amastigotes in 3T3 Fibroblasts; format: functional; details: Mus musculus, read-out: ED50 (the source's name)
[1] = molecular target: glyceraldehyde-3-phosphate dehydrogenase (Leishmania mexicana); assay: Inhibitory concentration against Leishmania mexicana glyceraldehyde-3-phosphate dehydrogenase (GAPDH)
Trypanosoma brucei = assay: Effective dose required against Trypanosoma brucei in bloodstream; format: functional; details: read-out: ED50 (the source's name)
[2] = Inhibitory concentration against Trypanosoma cruzi glyceraldehyde-3-phosphate dehydrogenase (GAPDH)
[3] = Inhibitory concentration against rabbit muscle glyceraldehyde-3-phosphate dehydrogenase (GAPDH); parameters: species or system Oryctolagus cuniculus
[4] = Inhibitory concentration against Trypanosoma brucei glyceraldehyde-3-phosphate dehydrogenase (GAPDH)
Trypanosoma cruzi [5] = assay: Effective dose required against Trypanosoma cruzi amastigotes; details: read-out: ED50 (the source's name)
[6] = molecular target: glyceraldehyde-3-phosphate dehydrogenase (Leishmania mexicana); assay: Inhibitory concentration against Leishmania mexicana glyceraldehyde-3-phosphate dehydrogenase (GAPDH); remark: listed apart in the source
Trypanosoma cruzi [7] = assay: Effective dose required against Trypanosoma cruzi amastigotes; details: read-out: ED50 (the source's name); remark: listed apart in the source

## COc1cccc(C(=O)N[C@@H]2[C@H](O)[C@@H](COP(=O)(O)O)O[C@H]2n2cnc3c(NCc4cccc5ccccc45)ncnc32)c1
NIH3T3
  EC50: 90 µM
[1]
  IC50: 2 µM
Trypanosoma brucei
  EC50: 32 µM
[2]
  IC50: 5 µM
[3]
  IC50: > 100 µM
[4]
  IC50: 7 µM
Trypanosoma cruzi [5]
  EC50: 6 µM

## COc1cccc(C(=O)N[C@@H]2[C@H](O)[C@@H](CO)O[C@H]2n2cnc3c(NCc4cccc5ccccc45)ncnc32)c1
NIH3T3
  EC50: > 50 µM
[6]
  IC50: 6 µM
Trypanosoma brucei
  EC50: 30 µM
[2]
  IC50: 12 µM
Trypanosoma cruzi [7]
  EC50: 20 µM
[3]
  IC50: > 50 µM
[4]
  IC50: 25 µM

## O=C(Cn1ccnc1[N+](=O)[O-])NCc1ccccc1 [BENZNIDAZOLE]
NIH3T3
  EC50: > 50 µM

## NC(=O)c1ccc[n+]([C@@H]2O[C@H](COP(=O)([O-])O)[C@@H](O)[C@H]2O)c1 [BETANMN]
[1]
  IC50: > 500 µM
[3]
  IC50: > 500 µM

## N=C(N)c1ccc(OCCCCCOc2ccc(C(=N)N)cc2)cc1 [PENTAMIDINE]
Trypanosoma brucei
  EC50: 0.008 µM
